For the assay, the target named is T1, full-length SARM1 (FL-SARM1) (Homo sapiens, UniProt Q6SZW1).
T1 sequence (Q6SZW1 28-724): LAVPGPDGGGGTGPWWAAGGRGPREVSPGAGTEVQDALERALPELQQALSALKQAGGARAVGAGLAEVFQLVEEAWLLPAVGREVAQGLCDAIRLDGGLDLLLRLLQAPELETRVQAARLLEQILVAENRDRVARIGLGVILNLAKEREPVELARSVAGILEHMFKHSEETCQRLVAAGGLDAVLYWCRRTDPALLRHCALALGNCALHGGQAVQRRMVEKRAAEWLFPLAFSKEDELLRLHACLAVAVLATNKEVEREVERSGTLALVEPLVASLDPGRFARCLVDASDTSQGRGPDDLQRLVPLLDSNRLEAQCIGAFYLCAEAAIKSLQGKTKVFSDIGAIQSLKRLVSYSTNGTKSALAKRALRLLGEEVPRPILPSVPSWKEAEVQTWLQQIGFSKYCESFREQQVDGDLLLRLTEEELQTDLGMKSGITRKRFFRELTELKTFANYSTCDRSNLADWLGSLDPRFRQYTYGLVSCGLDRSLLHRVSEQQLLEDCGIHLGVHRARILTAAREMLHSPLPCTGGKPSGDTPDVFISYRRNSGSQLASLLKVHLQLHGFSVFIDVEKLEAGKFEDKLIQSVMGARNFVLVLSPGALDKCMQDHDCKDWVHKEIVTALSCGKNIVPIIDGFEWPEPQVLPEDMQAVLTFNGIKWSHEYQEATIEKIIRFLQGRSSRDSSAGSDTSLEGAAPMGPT
The assay is described as follows: FL-SARM1 cellular lysate assay (NAD/NADH-Glo readout of remaining NAD+). To be noted: SARM1 cellular lysate from transfected HEK293T cells, NAD+ and NMN, 11 point curve.

For 28 compounds, IC50 results are on record in US20250361234A1 (NICO THERAPEUTICS, INC., priority 2022, published 2025).

Procedure: Preparation of full-length SARM1 (FL-SARM1) lysate: HEK293T cells (ATCC: CRL-3216) were grown on 150 mm TC-treated dishes to 80-90% confluency in complete DMEM (Thermo Fisher: 11965175) supplemented with 10% HI-FBS (VWR: 10802-772), 1× Pen/Strep (Thermo Fisher: 15140122), 1× NEAA (Thermo Fisher: 1140050), 1× glutamax (Thermo Fisher: 35050061), and 1 mM sodium pyruvate (Thermo Fisher: 11360070)) at 37° C. and 5% CO2. One hour prior to transfection, the media was replaced with fresh, 37° C. complete DMEM (20 mL per one 150 mm dish) supplemented with additional 10 mM glucose (Alfa Aesar AAJ60067EQE). Per one 150 mm dish, 30 μg FL-SARM1 (SEQ. ID. 1; cloned in-house) plasmid was dissolved in 1 mL DMEM at ambient temperature and were mixed by inverting the tube 8-10 times. 90 μL of GenJet™ in vitro DNA transfection reagent (Ver2) was dissolved in 1 mL DMEM at ambient temperature and were mixed by inverting the tube 8-10 times. The plasmid and transfection agent solutions were combined, mixed by 8-10 inversions and incubated for 10 minutes at ambient temperature. 2 mL of this transfection mixture was added to each dish containing HEK293T cells as prepared above followed by a gentle mixing of 4-5 horizontal rotations. The dishes were incubated at 37° C. and 5% CO2 for 24 h. The dishes were removed from the incubator, the medium was aspirated and the cells were scraped off using cell scrapers in ice-cold 1× PBS (5 mL/dish, Thermo Fisher Scientific 10010023). The collected cells were centrifuged at 300 g for 5 minutes at 4° C. The supernatant was aspirated and the pellet was frozen at −80° C. until needed. The cell pellet from 30 dishes was dissolved in 30 mL 1× PBS supplemented with 4 tablets of Complete, Mini EDTA-free protease inhibitor cocktail at 4° C. This mixture was sonicated on ice for 10 minutes at 50% amplitude with a 1 second on/1 second off interval using a Model 120 sonicator (Thermo Fisher Scientific, FB120110). The lysate was centrifuged at 16000 g for 10 minutes at 4° C.
To a white 384-well Proxiplate (PerkinElmer, PE-6008280) was added 50 nL/well of a DMSO solution containing test compounds followed by 7.5 mL/well of a 0.067 mg/mL solution of SARM1 cellular lysate in reaction buffer (DPBS containing CHAPSO (0.1%) and fatty acid free BSA (0.032%)). The plate was centrifuged for 1 minute at 1000 RPM and then placed in an incubator at 23° C. for 15 minutes. To the wells were added 2.5 mL/well of a solution containing 40 mM NAD^+ and 4 mM NMN in reaction buffer. The plate was centrifuged for 1 min at 1000 RPM, the plate was sealed and placed in an incubator at 23° C. for 3.5 hours before adding 3.5 mL/well of NAD/NADH-Glo™ solution (preparation as described by Promega using the extended detection protocol). The plate was centrifuged for 1 minute at 1000 RPM and then incubated at 23° C. for 20 minutes. 1 mL/well of a 3.625 mM solution of menadione in DMSO was added and the plate was centrifuged for 1 minute at 1000 RPM. […] Percent inhibition was calculated as follows:
IC50 values were calculated from an 11 point curve using ½ log dilutions using a four-parameter logistic regression curve fit.

For `Cc1ccc(NC(=O)N2C3CCCC2C3)cc1-c1cncc(C(F)(F)F)c1` [Example 116, N-[4-methyl-3-[5-(trifluoromethyl)pyridin-3-yl]phenyl]-6-azabicyclo[3.1.1]heptane-6-carboxamide], the half-inhibitory concentration (IC50) reads like this: (Activity (μM)) 0.1 µM; (Activity) 0.0001 to 1 µM.

As to `Cc1ccc(NC(=O)N2C3CC[C@@H](C(=O)N(C)C)[C@@H]2C3)cc1-c1cncc(F)c1` [Example 34, trans-N^6-(3-(5-fluoropyridin-3-yl)-4-methylphenyl)-N^2,N^2-dimethyl-6-azabicyclo[3.1.1]heptane-2,6-dicarboxamide], the IC50 runs as follows: (Activity (μM)) 47.3 µM; (Activity) more than 10 µM.

Turning to `Cc1ccc(NC(=O)N2C3C[C@@H](C)C[C@@H]2C3)cc1-c1cncc(F)c1` (single isomer, unassigned) [Example 83, trans-N-(3-(5-fluoropyridin-3-yl)-4-methylphenyl)-3-methyl-6-azabicyclo[3.1.1]heptane-6-carboxamide], the IC50 is 0.01 µM (Activity (μM)) and 0.0001 to 1 µM (Activity).

As for `Cc1ccc(NC(=O)N2CC3CC2c2ccccc23)cc1-c1cncc(F)c1` (centres unmarked) [Example 95, N-[3-(5-fluoropyridin-3-yl)-4-methylphenyl]-9-azatricyclo[6.2.1.02,7]undeca-2,4,6-triene-9-carboxamide], the IC50 is, setting by setting: (Activity (μM)) 0.2 µM; (Activity) 0.0001 to 1 µM.

In the case of `O=C(Nc1cccc(-c2cncc(F)c2)c1)N1C2CCCC1C2` [Example 73, N-[3-(5-fluoropyridin-3-yl)phenyl]-6-azabicyclo[3.1.1]heptane-6-carboxamide], the IC50 is 1.2 µM (Activity (μM)) and 1 to 10 µM (Activity).

Take `COc1ccncc1-c1cc(NC(=O)N2C3CCCC2C3)ccc1C` [Example 59, N-[3-(4-methoxypyridin-3-yl)-4-methylphenyl]-6-azabicyclo[3.1.1]heptane-6-carboxamide]: the IC50 by setting is: (Activity (μM)) 1.7 µM; (Activity) 1 to 10 µM.

For `Cc1nnc([C@]23C[C@H](C)C[C@H](C2)N3C(=O)Nc2ccc(C(F)(F)F)c(-c3cncc(F)c3)c2)o1` (single isomer, unassigned) [Example 121, cis-N-(3-(5-fluoropyridin-3-yl)-4-(trifluoromethyl)phenyl)-3-methyl-1-(5-methyl-1,3,4-oxadiazol-2-yl)-6-azabicyclo[3.1.1]heptane-6-carboxamide], the 50% inhibitory concentration (IC50) by setting is: (Activity (μM)) 0.034 µM; (Activity) 0.0001 to 1 µM.

On to `Cc1ccc(NC(=O)C2CCCN2C2CCC2)cc1-c1cncc(F)c1` (racemic) [Example 103, 1-cyclobutyl-N-[3-(5-fluoropyridin-3-yl)-4-methylphenyl]pyrrolidine-2-carboxamide], for which the IC50 runs as follows: (Activity (μM)) 17.7 µM; (Activity) more than 10 µM.

As to `Cc1ccc(NC(=O)N2C3CCCC2(C(=O)N2CCCC2)C3)cc1-c1cncc(F)c1` (centres unmarked) [Example 93, N-[3-(5-fluoropyridin-3-yl)-4-methylphenyl]-1-(pyrrolidine-1-carbonyl)-6-azabicyclo[3.1.1]heptane-6-carboxamide], half-maximal inhibition (Activity (μM)) (IC50) required 4.4 µM and the IC50 (Activity) was in the range of 1 to 10 µM.

In the case of `COc1ccc(-c2cc(NC(=O)N3[C@@H]4C[C@@H](C)C[C@H]3C4)c(F)cc2Cl)cn1` [Example 131, cis-N-[4-chloro-2-fluoro-5-(6-methoxy-3-pyridinyl)phenyl]-3-methyl-6-azabicyclo[3.1.1]heptane-6-carboxamide], the IC50 was 0.7 µM (Activity (μM)) and 0.0001 to 1 µM (Activity).

With `Cc1ccc(NC(=O)N2[C@H](C)CCC[C@@H]2C)cc1-c1cncc(F)c1` [Example 21, cis-N-(3-(5-fluoropyridin-3-yl)-4-methylphenyl)-2,6-dimethylpiperidine-1-carboxamide], the IC50 reads like this: (Activity (μM)) 1.5 µM; (Activity) 1 to 10 µM.

In the case of `Cc1ccc(NC(=O)C2CCCN2C(=O)OC(C)(C)C)cc1-c1cncc(F)c1` (racemic) [Example 105, tert-butyl 2-[[3-(5-fluoropyridin-3-yl)-4-methylphenyl]carbamoyl]pyrrolidine-1-carboxylate], the IC50 is, setting by setting: (Activity (μM)) 13.5 µM; (Activity) more than 10 µM.

For the compound `O=C(Nc1ccc(CCF)c(-c2cncc(F)c2)c1)N1C2CCCC1C2` [Example 28, N-(4-(2-fluoroethyl)-3-(5-fluoropyridin-3-yl)phenyl)-6-azabicyclo[3.1.1]heptane-6-carboxamide], the IC50 is, setting by setting: (Activity (μM)) 0.8 µM; (Activity) 0.0001 to 1 µM.

For `Cc1ccc(NC(=O)N2C3CC2CC(F)(F)C3)cc1-c1cncc(F)c1` [Example 37, 3,3-difluoro-N-(3-(5-fluoropyridin-3-yl)-4-methylphenyl)-6-azabicyclo[3.1.1]heptane-6-carboxamide], the IC50 is 0.5 µM (Activity (μM)) and 0.0001 to 1 µM (Activity).

Turning to `Cc1ccc(-c2cc(NC(=O)N3C4CCCC3C4)ccc2C)cn1` [Example 70, N-[4-methyl-3-(6-methylpyridin-3-yl)phenyl]-6-azabicyclo[3.1.1]heptane-6-carboxamide], the IC50 reads like this: (Activity (μM)) 0.3 µM; (Activity) 0.0001 to 1 µM.

As for `Cc1ccc(NC(=O)N2C3CCCC2C3)cc1-c1cncc(F)c1C` [Example 92, N-(3-(5-fluoro-4-methylpyridin-3-yl)-4-methylphenyl)-6-azabicyclo[3.1.1]heptane-6-carboxamide], the IC50 was 0.5 µM (Activity (μM)) and 0.0001 to 1 µM (Activity).

`Cc1ccc(NC(=O)[C@@H]2CC2(F)F)cc1-c1cncc(F)c1` [Example 110, (S)-2,2-difluoro-N-(3-(5-fluoropyridin-3-yl)-4-methylphenyl)cyclopropanecarboxamide] showed an IC50 (Activity (μM)) of 8.2 µM and an IC50 (Activity) of 1 to 10 µM.

Regarding `Cc1ccc(NC(=O)N2C3C[C@H]2C[C@@]2(C3)CC2(F)F)cc1-c1cncc(F)c1` [Example 11, cis-2′,2′-difluoro-N-(3-(5-fluoropyridin-3-yl)-4-methylphenyl)-6-azaspiro[bicyclo[3.1.1]heptane-3,1′-cyclopropane]-6-carboxamide], the IC50 reads like this: (Activity (μM)) 0.08 µM; (Activity) 0.0001 to 1 µM.

For `Cc1ccc(NC(=O)N2C3CCCC2(C#N)C3)cc1-c1cncc(F)c1` (centres unmarked) [Example 96, 1-cyano-N-[3-(5-fluoropyridin-3-yl)-4-methylphenyl]-6-azabicyclo[3.1.1]heptane-6-carboxamide], the half-maximal inhibitory concentration (IC50) reads like this: (Activity (μM)) 0.07 µM; (Activity) 0.0001 to 1 µM.

On to `COc1cncc(-c2cc(NC(=O)N3C4CCCC3C4)ccc2C)c1` [Example 71, N-(3-(5-methoxypyridin-3-yl)-4-methylphenyl)-6-azabicyclo[3.1.1]heptane-6-carboxamide], for which the IC50 is 0.08 µM (Activity (μM)) and 0.0001 to 1 µM (Activity).

Consider `Cc1ncc(-c2cc(NC(=O)N3C4CCCC3C4)ccc2C)cn1` [Example 85, N-(4-methyl-3-(2-methylpyrimidin-5-yl)phenyl)-6-azabicyclo[3.1.1]heptane-6-carboxamide], for which the IC50 reads like this: (Activity (μM)) 1.8 µM; (Activity) 1 to 10 µM.

Turning to `Cc1ccc(NC(=O)[C@@H]2CC2(F)F)cc1-c1cnc(C(F)(F)F)nc1` [Example 113, (1S)-2,2-difluoro-N-[4-methyl-3-[2-(trifluoromethyl)pyrimidin-5-yl]phenyl]cyclopropane-1-carboxamide], the IC50 reads like this: (Activity (μM)) 34.4 µM; (Activity) more than 10 µM.

Regarding `Cc1ccc(NC(=O)N2[C@H](C)CCC[C@H]2C)cc1-c1cncc(F)c1` [Example 22, (2R,6R)-N-(3-(5-fluoropyridin-3-yl)-4-methylphenyl)-2,6-dimethylpiperidine-1-carboxamide], the IC50 was 1.2 µM (Activity (μM)) and 1 to 10 µM (Activity).

As for `Cc1ccc(NC(=O)C2C3CC2CN(CC(F)(F)F)C3)cc1-c1cncc(F)c1` (centres unmarked) [Example 101, N-[3-(5-fluoropyridin-3-yl)-4-methylphenyl]-3-(2,2,2-trifluoroethyl)-3-azabicyclo[3.1.1]heptane-6-carboxamide], the IC50 by setting is: (Activity (μM)) 0.8 µM; (Activity) 0.0001 to 1 µM.

For `Cc1ccc(NC(=O)N2C3CCCC2C3)cc1-c1ccc(C#N)nc1` [Example 60, N-[3-(6-cyanopyridin-3-yl)-4-methylphenyl]-6-azabicyclo[3.1.1]heptane-6-carboxamide], the IC50 by setting is: (Activity (μM)) 8.5 µM; (Activity) 1 to 10 µM.

Regarding `Cc1ccc(NC(=O)[C@H]2C[C@H](C3CC3(F)F)C2)cc1-c1cccnc1` (stereo partly drawn) [Example 99, trans-3-(2,2-difluorocyclopropyl)-N-(4-methyl-3-pyridin-3-ylphenyl)cyclobutane-1-carboxamide], the IC50 was 5.1 µM (Activity (μM)) and 1 to 10 µM (Activity).

For the compound `Cc1cncc(-c2cc(NC(=O)N3C4CCCC3C4)ccc2C)c1` [Example 115, N-[4-methyl-3-(5-methylpyridin-3-yl)phenyl]-6-azabicyclo[3.1.1]heptane-6-carboxamide], the IC50 was 0.1 µM (Activity (μM)) and 0.0001 to 1 µM (Activity).

With `Cc1ccc(NC(=O)N2C[C@@H](C)CC[C@H]2C)cc1-c1cncc(F)c1` (racemic) [Example 8, cis-N-(3-(5-fluoropyridin-3-yl)-4-methylphenyl)-2,5-dimethylpiperidine-1-carboxamide], the IC50 reads like this: (Activity (μM)) 2.6 µM; (Activity) 1 to 10 µM.
